The values that follow come from patent US20230277669A1, “USES OF UROLITHINS” (Amazentis SA, priority 2022, published 2023).

One assay concerns NALM-6 leukemia cells. In words: Killing of NALM-6 cells by CD19-CAR T cells. The assay is classed as cell-based, human. The settings on record: 24 h co-culture.
In a further assay the test system is CD3+ cells. In words: Western blot, fractionation and immunofluorescence of stimulated CD3+ cells. The assay is classed as cell-based. The protocol: (FIG. 4A) Scheme of CD3+ T-cell activation and analysis for various timepoints in order to investigate mitophagy induction in vitro. (FIG. 4B) Analysis of mitochondrial membrane potential within CD8+ T cells, with TMRM^lo representing cells with low mitochondrial membrane potential. Analysis was performed six hours after stimulation with aCD/aCD28 stimulation beads at the presence of the indicated treatments. N=4 per group, *p < 0.05 by Mann Whitney U test. One of two independent experiments are shown. (FIG. 4C) Representative flow histogram and quantification of lysosome formation in CD8+ cells six hours after in vitro stimulation. MFI shown relative to DMSO controls, n=4. Data are normalised mean ± SD, statistical analysis by two-sided t-test. One out of two independent experiments are shown. (FIG. 4D) Mitotracker Red staining of in vitro stimulated CD8+ cells after 24 hours of Urolithin A (UA25 n=6; UA50 n=6) or vehicle control treatment (DMSO: n=4). A representative flow histogram depicting identification of Mitotracker^hi cells is shown. Data are mean ± SD, statistical analysis was performed by two-sided t-test (*p < 0.05; ***p <0.001; ****p < 0.0001). Experiment was repeated twice. (FIG. 4E) Subset-specific identification of Mitotracker red accumulation after 24 hours of in vitro stimulation either with vehicle control (DMSO) or 50 µM Urolithin A (n=5). Subsets were identified was depicted in the FIGS. 7-9. Data are mean ± SD, statistical analysis by two-sided t-test (* p<0.05, *** p<0.001 and **** p<0.0001). (FIG. 4F) qPCR analysis of various autophagy/mitophagy associated genes of in vitro activated CD3+ cells, 24 h after activation (n=3). Data are ± SEM, statistical analysis was performed by two-sided t-test (*p < 0.05,**p < 0.01). Overall p value is given for the comparison over the entire panel of genes after two-way ANOVA test. (FIG. 4G) Western blot of Parkin protein expression in UA or DMSO (n=3) treated cells after 24 h. Cells were stimulated at the presence of plate-bound aCD3/aCD28 antibodies. […] (FIG. 4H) CD8+ cells from Pink1^-/- mice display deficient mitophagy upon UA treatment in vitro: Lysosome formation in CD8+ of Pink1^-/- mice as assessed by Lysotracker staining 6h post stimulation at the presence of UA or DMSO (n=4). Data are mean ± SD, one out of two independent experiments are shown. (FIG. 4I) CD8+ cells from Pink1^-/- mice display deficient mitophagy upon UA treatment in vitro: Mitotracker red staining of Pink1^-/- CD8+ stimulated in vitro for 48 h, either in the presence of UA or DMSO (n=4). Percentage of Mitotracker^hi CD8+ cells are shown. Data are mean ± SD and acquired via flow cytometry. […] Quantification of TCF1^hi cells among CD8. (FIG. 4N) Quantification of PD1^hi cells among CD8. (FIG. 4O) Quantification of and Tim3^hi cells among CD8. […]
(Immunoblotting shows a protein as a band on a membrane.)

SMILES strings stand for the structures.

For the molecule `O=c1oc2cc(O)ccc2c2ccc(O)cc12` [Urolithin A], the “CD19 CAR-T cell mediated killing of NALM-6 leukemia cells” value in the assay on NALM-6 leukemia cells is “did not have a negative impact”. The “phosphorylation of Stat1” value in the assay with CD3+ cells (6 h, compared to vehicle controls) is reported as “equal phosphorylation of Stat1”. Besides, the “Parkin protein expression (Western blot)” value in the assay with CD3+ cells (24 h) is “stabilized Parkin protein expression”. In the assay on CD3+ cells (after 6 hours), the b-catenin phosphorylation entry is on record as “marked decrease”. Moreover, the “Pgam5 localization (sub-cellular fractionation, immunofluorescence)” value in the assay with CD3+ cells (six hours) is “rapidly released into the cytoplasma”.
